The source of these data is patent publication US7985424B2, “Dendritic polymers with enhanced amplification and interior functionality” (Dendritic Nanotechnologies Inc., priority 2004, dated 2011).

One data set concerns HEK 293 cells. In words: Membrane permeation of FITC-conjugated PEHAM dendrimer (fluorescence microscopy). The data set is classed as cell-based, human. As to conditions: monitored at 2, 5 and 24 hours, FIG. 13.
Data set [1] can be described thus: Proton relaxivity analysis (variable field T1-T2 analyzer). It counts as physicochemical. As to conditions: Table IV; field strength varied from 1-64 MHz. As for the experimental part:
Relaxivity analysis was performed using a variable field T1-T2 analyzer. The field strength was varied from 1-64 MHz.
The Gd(III) content of the solutions was determined on a sequential, radially viewed Varian™ Liberty Series II ICPOES inductively coupled plasma optical emission spectrophotometer (Anderson Analytical, TX). Relaxivity analysis was performed using a variable field T1-T2 analyzer (University of Pittsburgh). The field strength was varied from 1-64 MHz. […] Relaxivity values for DTPA-Gd(III)-encapsulated dendrimers were similar to free DTPA-Gd(III).

Description for HEK 293 cells: Fluorescence microscopy and phase contrast microscopy studies were performed using a Nikon Diaphot™ TMD microscope equipped with Nikon™ TMD-EF for fluorescence, along with a Nikon™ CoolPix 990 digital camera to capture the results.
HEK 293 cells were plated at 40% confluency in a 96-well plate (Becton Dickinson) in MEM (Fisher), containing 10% FBS (ISC BioExpress). […] Control wells included G=1 PEHAM dendrimer and FITC dye alone, at equivalent concentrations. The cells were incubated with the conjugate for 24 hours, with monitoring via fluorescence microscopy at 2, 5, and 24 hours. Prior to examination under the microscope, the cells to be analyzed were rinsed 2 times with PBS.

Consider fluorescein isothiocyanate [FITC], for which, in the data set on HEK 293 cells, the “membrane permeation / intracellular fluorescence” value was “no intracellular fluorescence”. Regarding `O=C([O-])CN(CCN(CC(=O)[O-])CC(=O)O)CCN(CC(=O)[O-])CC(=O)O.[Gd+3]` [DTPA-Gd, diethylenetriaminepentaacetic acid, gadolinium(III)], in data set [1], the Relaxivity (r1) was determined as 4.2 mM⁻¹ s⁻¹.
